Laboratory results from paper PMC12848076, “Identification of two odorant receptors tuned to alarm pheromone compounds in the honey bee Apis mellifera” (Communications Biology, 2025).
Marks after values point to notes of the source that are not given here.

Assays:
Type in all cases: cell-based
AmelOR109 [1] = target: T1, AmelOR109 (Apis mellifera, UniProt A0A7M6UWX9); experiment: single sensillum recording, ab3A OSN; settings: agonist; 1000 µg on filter paper; vs mineral oil
T1 construct: gene Or109; full-length ORF, codon-optimized, pUAST.attB at 86F8; expressed in ab3A OSNs of D. melanogaster lacking OR22a/OR22b (empty neuron); endogenous Drosophila Orco as co-receptor; with Odorant receptor coreceptor
T1 sequence (A0A7M6UWX9 1-390): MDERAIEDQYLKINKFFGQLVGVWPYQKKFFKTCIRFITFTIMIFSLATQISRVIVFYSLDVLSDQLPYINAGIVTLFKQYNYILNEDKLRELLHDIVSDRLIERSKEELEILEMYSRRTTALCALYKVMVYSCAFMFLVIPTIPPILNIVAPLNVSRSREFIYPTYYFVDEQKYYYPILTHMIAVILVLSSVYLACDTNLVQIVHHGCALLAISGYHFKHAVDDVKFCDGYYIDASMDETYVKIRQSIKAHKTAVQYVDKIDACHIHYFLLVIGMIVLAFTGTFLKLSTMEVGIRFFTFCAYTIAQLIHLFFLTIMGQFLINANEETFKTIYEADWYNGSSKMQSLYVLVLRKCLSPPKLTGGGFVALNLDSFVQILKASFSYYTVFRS
T1 sequence (Q9VNB5 1-486 partner): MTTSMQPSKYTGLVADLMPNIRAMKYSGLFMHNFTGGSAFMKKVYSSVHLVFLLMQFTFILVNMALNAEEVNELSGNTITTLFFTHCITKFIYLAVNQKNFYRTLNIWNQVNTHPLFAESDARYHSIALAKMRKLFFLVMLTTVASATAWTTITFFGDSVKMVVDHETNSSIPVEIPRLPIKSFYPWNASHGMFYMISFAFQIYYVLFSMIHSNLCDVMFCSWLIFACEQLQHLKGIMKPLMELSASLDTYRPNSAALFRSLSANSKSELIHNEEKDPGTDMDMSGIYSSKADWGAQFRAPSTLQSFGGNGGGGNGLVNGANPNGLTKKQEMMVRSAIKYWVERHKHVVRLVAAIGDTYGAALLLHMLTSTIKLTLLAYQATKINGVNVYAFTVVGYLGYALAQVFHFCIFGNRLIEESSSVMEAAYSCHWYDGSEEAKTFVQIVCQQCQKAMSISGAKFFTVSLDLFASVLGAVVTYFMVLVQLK

AmelOR109 [2] = target: T1, AmelOR109; experiment: single sensillum recording, ab3A OSN, dose-response; settings: agonist; estimated airborne amount in stimulus, not a concentration; vs mineral oil; full curve only in Figure 5B
AmelOR109 [3] = target: T1, AmelOR109; experiment: transcuticular calcium imaging (GCaMP6s), ab3A OSN; settings: agonist; 1000 µg on filter paper; vs mineral oil

Compound	dose of statistical significance (AmelOR109 [2]) [pmol]	other results
CCC(C)=O [2-butanone]	–	spikes per second (AmelOR109 [1]): AmelOR109 was activated by multiple compounds in the panel, including 2-butanone
CC(=O)OCc1ccccc1 [benzyl acetate]	390	–
CCCC(=O)OCC [ethyl butyrate]	47000	–
CC(C)=CCC/C(C)=C/C(=O)O [geranic acid]	–	ΔF/F0 (AmelOR109 [3]): two compounds from the aggregation pheromone were strongly active: geranic acid
CC(=O)OCCC(C)C [isopentyl acetate]	2700	–
CCCCCCCCOC(C)=O [octyl acetate]	15000	–
